# Source: ChEMBL document CHEMBL5053494, “Novel halogenated arylvinyl-1,2,4 trioxanes as potent antiplasmodial as well as anticancer agents: Synthesis, bioevaluation, structure-activity relationship and in-silico studies” (Eur J Med Chem, 2021)
# Calls of active or inactive are those of the source. The calls are words filed in the database; no cut-off is given here.
# Legend:
# [1] = tested on: Plasmodium falciparum; test: Antiplasmodial activity against chloroquine-resistant Plasmodium falciparum INDO assessed as growth inhibition by SYBER green 1 dye based fluorescence assay; assay type: functional, organism-based
# [2] = tested on: A549; test: Anticancer activity against human A549 cells assessed as cell growth inhibition measured for 72 hrs by MTT assay; assay type: functional, cell-based; details: A549, 72 h
# [3] = tested on: HepG2; test: Anticancer activity against human HepG2 cells assessed as cell growth inhibition measured for 72 hrs by MTT assay; assay type: functional, cell-based; details: HepG2, 72 h
# [4] = tested on: BEAS-2B; test: Anticancer activity against human BEAS-2B cells assessed as cell growth inhibition measured for 72 hrs by MTT assay; assay type: functional, cell-based
# [5] = tested on: L02; test: Anticancer activity against human L02 cells assessed as cell growth inhibition measured for 72 hrs by MTT assay; assay type: functional, cell-based; details: L02, 72 h
# [6] = Selectivity ratio of IC50 for anticancer activity against human BEAS-2B cells to IC50 for anticancer activity against human A549 cells; assay type: toxicity, cell-based; details: BEAS-2B cells versus A549 cells, read-out: Ratio IC50
# [7] = Selectivity ratio of IC50 for anticancer activity against human L02 cells to IC50 for anticancer activity against human HepG2 cells; assay type: toxicity, cell-based; details: L02 cells versus HepG2 cells, read-out: Ratio IC50
# [8] = tested on: Plasmodium falciparum; test: Antiplasmodial activity against artemisinin-resistant Plasmodium falciparum Cam 3.1 R539 assessed as growth inhibition by SYBER green 1 dye based fluorescence assay; assay type: functional, organism-based
# [9] = tested on: Plasmodium falciparum; test: Resistance index, ratio of IC50 for antiplasmodial activity against artemisinin-resistant Plasmodium falciparum Cam 3.1 R539 to IC50 for antiplasmodial activity against chloroquine-resistant Plasmodium falciparum INDO; assay type: functional
# [10] = Cytotoxicity against human HEK293 cells assessed as cell viability measured for 24 hrs by MTT assay; assay type: cell-based
# [11] = Selectivity index, ratio of CC50 for human HEK293 cells to IC50 for antiplasmodial activity against chloroquine-resistant Plasmodium falciparum INDO; assay type: toxicity; details: HEK293 cells versus Plasmodium falciparum INDO
# [12] = tested on: Plasmodium falciparum; test: Antiplasmodial activity against ring stage chloroquine-resistant Plasmodium falciparum INDO assessed as percentage survival at 70 nM for 6 hrs by ring stage survival assay; assay type: functional, organism-based
# [13] = tested on: Plasmodium falciparum; test: Antiplasmodial activity against ring stage chloroquine-resistant Plasmodium falciparum Cam 3.1 R539 assessed as percentage survival at 70 nM for 6 hrs by ring stage survival assay; assay type: functional
# [14] = tested on: Plasmodium falciparum; test: Antiplasmodial activity against ring stage chloroquine resistant Plasmodium falciparum INDO assessed as percentage survival at 700 nM for 6 hrs by ring stage survival assay; assay type: functional
# [15] = tested on: Plasmodium falciparum; test: Antiplasmodial activity against ring stage chloroquine-resistant Plasmodium falciparum Cam 3.1 R539 assessed as percentage survival at 700 nM for 6 hrs by ring stage survival assay relative to control; assay type: functional
# [16] = tested on: Plasmodium berghei; test: Antimalarial activity against Plasmodium berghei ANKA infected in Balb/c mouse assessed as suppression of parasitemia at 50 mg/kg, ip administered for 4 days by microscopic analysis; assay type: functional; details: time 4 day
# [17] = tested on: Plasmodium berghei; test: Antimalarial activity against Plasmodium berghei ANKA infected in Balb/c mouse assessed as suppression of parasitemia at 50 mg/kg, po administered for 4 days by microscopic analysis; assay type: functional; details: time 4 day
SMILES,IC50 [1] [µM],IC50 [2] [µM],IC50 [3] [µM],IC50 [4] [µM],IC50 [5] [µM],selectivity ratio [6],selectivity ratio [7],IC50 [8] [µM],Ratio IC50 [9],CC50 at 24 h [10] [µM],selectivity ratio [11],Activity [12],Activity [13] [%],Activity [14] [%],Activity [15] [%],Activity [16] [%],Activity [17] [%]
C=C(c1ccc(F)cc1F)C1COC2(CCCC2)OO1 (stereo not drawn),> 0.1,5.09,15.4,62.6,17.6,12.3,1.14,,,,,,,,,,
C=C(c1ccc(F)c(F)c1)C1COC2(OO1)C1CC3CC(C1)CC2C3 (stereo not drawn),0.0123,4.97,26.1,57.1,9.48,6.29,0.48,0.0414,3.39,12.6,1050,,,,,,
C=C(c1ccc(Cl)cc1Cl)C1COC2(OO1)C1CC3CC(C1)CC2C3 (stereo not drawn),0.0154,9.92,17.2,10.2,12.5,1.02,0.41,0.0462,2.99,14.8,989,,,,,,
C=C(c1cc(Cl)cc(Cl)c1OCc1ccccc1)C1COC(C)(C)OO1 (stereo not drawn),0.04,58.4,39.5,25.5,64.1,3.16,4.78,0.0173,0.44,31.6,811,,,,,,
C=C(c1ccc(Cl)c(Cl)c1Cl)C1COC2(CCCCC2)OO1 (stereo not drawn),> 0.1,1.37,9.02,10.3,1.22,7.51,0.72,,,,,,,,,,
C=C(c1ccc(F)c(F)c1)C1COC(C)(C)OO1 (stereo not drawn),> 0.1,> 100,> 100,> 100,> 100,,,,,,,,,,,,
C=C(c1ccc(Cl)cc1Cl)C1COC(C)(C)OO1 (stereo not drawn),> 0.1,92.6,90.5,68.6,37.7,0.74,0.16,,,,,,,,,,
C=C(c1cc(Cl)cc(Cl)c1OCc1ccccc1)C1COC2(OO1)C1CC3CC(C1)CC2C3 (stereo not drawn),0.0224,31.6,> 100,> 100,> 100,,1.62,0.043,1.93,60.9,2770,,,,,,
C[C@@H]1CC[C@H]2[C@@H](C)C(=O)O[C@@H]3O[C@@]4(C)CC[C@@H]1[C@]32OO4 [ARTEMISININ],0.0066,9.85,4.09,7.53,8.25,0.76,2.01,0.0135,2.05,> 26,4330,inactive,50,10,20,,
C=C(c1ccc(Cl)c(Cl)c1)C1COC(C)(C)OO1 (stereo not drawn),> 0.1,> 100,> 100,> 100,50.9,,,,,,,,,,,,
C=C(c1ccc(Cl)c(Cl)c1Cl)C1COC(C)(C)OO1 (stereo not drawn),> 0.1,52.1,27.3,10.2,18.1,0.19,0.14,,,,,,,,,,
C=C(c1ccc(Cl)c(Cl)c1Cl)C1COC2(OO1)C1CC3CC(C1)CC2C3 (stereo not drawn),0.0421,15,34.4,17.6,6.56,1.17,0.66,,,75.8,1810,,,,,,
C=C(c1ccc(Cl)c(Cl)c1)C1COC2(CCCCC2)OO1 (stereo not drawn),> 0.1,12.8,83.5,39.4,83.5,3.07,2.37,,,,,,,,,,
C=C(c1ccc(F)cc1F)C1COC2(CCCCC2)OO1 (stereo not drawn),> 0.1,> 100,36,49.7,17.6,11.5,,,,,,,,,,,
C=C(c1cc(Cl)cc(Cl)c1OCc1ccccc1)C1COC2(CCCCC2)OO1 (stereo not drawn),> 0.1,> 100,> 100,> 100,> 100,,,,,,,,,,,,
CC(=O)O[C@H]1C(=O)[C@@]2(C)[C@H]([C@H](OC(=O)c3ccccc3)[C@]3(O)C[C@H](OC(=O)[C@H](O)[C@@H](NC(=O)c4ccccc4)c4ccccc4)C(C)=C1C3(C)C)[C@]1(OC(C)=O)CO[C@@H]1C[C@@H]2O [PACLITAXEL],,,0.19,< 0.1,< 0.1,,,,,,,,,,,,
CCN(CC)CCCC(C)Nc1ccnc2cc(Cl)ccc12 (stereo not drawn) [CHLOROQUINE],,100,49,3.07,15,,,,,,,,,,,100,100
C=C(c1ccc(F)c(F)c1)C1COC2(CCCCC2)OO1 (stereo not drawn),> 0.1,7.88,28.6,61.2,16.5,1.26,0.22,,,,,,,,,,
C=C(c1ccc(F)cc1F)C1COC2(OO1)C1CC3CC(C1)CC2C3 (stereo not drawn),> 0.1,4.43,65.6,46.4,10.9,10.5,0.16,,,,,,,,,,
C=C(c1ccc(Cl)c(Cl)c1)C1COC2(CCCC2)OO1 (stereo not drawn),> 0.1,4.68,62.6,50.9,8.45,10.9,0.13,,,,,,,,,,
C=C(c1ccc(OC)c(F)c1)C1COC(C)(C)OO1 (stereo not drawn),> 0.1,100,> 100,68.7,> 100,,0.37,,,,,,,,,,
C=C(c1ccc(Cl)c(Cl)c1)C1COC2(OO1)C1CC3CC(C1)CC2C3 (stereo not drawn),0.0224,2.93,34.3,26.7,3.36,9.11,0.5,0.05,2.24,13.2,599,,,,,,
C=C(c1ccc(OC)c(F)c1)C1COC2(CCCCC2)OO1 (stereo not drawn),> 0.1,6.53,13.1,37.7,15.4,5.77,1.17,,,,,,,,,,
C=C(c1ccc(F)cc1F)C1COC(C)(C)OO1 (stereo not drawn),> 0.1,> 100,> 100,> 100,> 100,,,,,,,,,,,,
C=C(c1ccc(F)c(F)c1)C1COC2(CCCC2)OO1 (stereo not drawn),0.0266,11.7,38.6,73.6,8.84,7.76,0.36,0.196,7.36,23.3,895,,,,,,
C=C(c1ccc(OC)c(F)c1)C1COC2(CCCC2)OO1 (stereo not drawn),0.0111,9.7,29.3,55.8,18.5,5.75,0.63,0.0864,7.8,33,3000,,,,,,
C=C(c1cc(Cl)cc(Cl)c1OCc1ccccc1)C1COC2(CCCC2)OO1 (stereo not drawn),0.0316,2.07,13.7,28.6,65.6,0.43,0.19,,,2.26,72.9,,,,,,
